Reference: the NIST ThermoML archive (doi:10.1016/j.fluid.2014.12.040)

Key:
[1] = xn = mol fraction of the nth substance listed; details: for surface tension liquid-gas: Wilhelmy-plate method; for mass density: 100 kPa, Liquid, Vibrating tube method
[2] = for surface tension liquid-gas: Wilhelmy-plate method; for mass density: 100 kPa, Liquid, Vibrating tube method

O [water] + CC(O)CO
[1], x2 = 0
Details	mass density [kg/m3]	surface tension liquid-gas [mN/m]
298.15 K	–	72.03
308.15 K	–	70.3
318.15 K	–	68.7
328.15 K	985.66	66.9

O [water]
[2]
Details	mass density [kg/m3]	surface tension liquid-gas [mN/m]
298.15 K	–	72.03
308.15 K	–	70.3
318.15 K	–	68.7
328.15 K	985.66	66.9

CC(C)O [propan-2-ol] + CC(O)CO
[1], x1 = 1
Details	mass density [kg/m3]	surface tension liquid-gas [mN/m]
298.15 K	781.18	20.85
308.15 K	772.32	20.1
318.15 K	763.61	19.4
328.15 K	754.84	18.75

CC(O)CO (centres undefined) [1,2-propanediol]
[2]
Details	mass density [kg/m3]	surface tension liquid-gas [mN/m]
298.15 K	1032.69	35.74
308.15 K	1025.21	35.35
318.15 K	1017.51	34.96
328.15 K	1009.78	34.6

CC(C)O [propan-2-ol]
[2]
Details	mass density [kg/m3]	surface tension liquid-gas [mN/m]
298.15 K	781.18	20.85
308.15 K	772.32	20.1
318.15 K	763.61	19.4
328.15 K	754.84	18.75
